Measurements as given in ChEMBL document CHEMBL1153340, “Inhibitors of HIV-1 attachment. Part 2: An initial survey of indole substitution patterns” (Bioorg Med Chem Lett, 2009).
≈ marks a conversion by molar mass, not a printed value.

What was measured:
[1] = Cmax in rat at 25 mg/kg, po dosed as solution in PEG400/EtOH; assay type: ADME, organism-based; parameters: dose 25 mg/kg, route oral; details: in vivo
[2] = Cytotoxicity against human HeLa67 cells expressing CD4/CCR5 after 3 days by XTT assay; assay type: cell-based
[3] = test system: Human immunodeficiency virus 1; experiment: Antiviral activity against pseudotype HIV1 JRFL infected in human HeLa67 cells expressing CD4/CCR5 after 3 days by luciferase reporter gene assay; assay type: functional, organism-based; details: Human immunodeficiency virus 1, JRFL, HeLa67, 72 h
[4] = Clearance in rat at 5 mg/kg, iv dosed as solution in PEG400/EtOH; assay type: ADME, organism-based; parameters: dose 5 mg/kg, route intravenous; details: in vivo
[5] = Volume of distribution at steady state in rat at 5 mg/kg, iv dosed as solution in PEG400/EtOH; assay type: ADME, organism-based; parameters: dose 5 mg/kg, route intravenous; details: in vivo, read-out: Vdss
[6] = Terminal half life in rat at 5 mg/kg, iv dosed as solution in PEG400/EtOH; assay type: ADME, organism-based; parameters: dose 5 mg/kg, route intravenous; details: in vivo, read-out: beta t1/2
[7] = Mean residence time in rat at 5 mg/kg, iv dosed as solution in PEG400/EtOH; assay type: ADME, organism-based; parameters: dose 5 mg/kg, route intravenous; details: in vivo
[8] = Tmax in rat at 25 mg/kg, po dosed as solution in PEG400/EtOH; assay type: ADME, organism-based; parameters: dose 25 mg/kg, route oral; details: in vivo
[9] = Tmax in rat at 5 mg/kg, po dosed as solution in PEG400/EtOH; assay type: ADME, organism-based; parameters: dose 5 mg/kg, route oral; details: in vivo
[10] = Terminal half life in rat at 25 mg/kg, po dosed as solution in PEG400/EtOH; assay type: ADME, organism-based; parameters: dose 25 mg/kg, route oral; details: in vivo, read-out: beta t1/2
[11] = Oral bioavailability in rat at 25 mg/kg dosed as solution in PEG400/EtOH; assay type: ADME, organism-based; details: in vivo
[12] = Oral bioavailability in rat at 5 mg/kg dosed as solution in PEG400/EtOH; assay type: ADME, organism-based; details: in vivo
[13] = Permeability across human Caco-2 cells; assay type: ADME, cell-based; details: read-out: permeability
[14] = Cmax in rat at 5 mg/kg, po dosed as nanosuspension; assay type: ADME, organism-based; parameters: dose 5 mg/kg, route oral; details: in vivo
[15] = Tmax in rat at 5 mg/kg, po dosed as nanosuspension; assay type: ADME, organism-based; parameters: dose 5 mg/kg, route oral; details: in vivo
[16] = Oral bioavailability in rat at 5 mg/kg dosed as nanosuspension; assay type: ADME, organism-based; details: in vivo
[17] = Cmax in dog at 1 mg/kg, po dosed as solution in PEG400/EtOH; assay type: ADME, organism-based, Canis lupus familiaris; parameters: dose 1 mg/kg, route oral; details: in vivo
[18] = Tmax in dog at 1 mg/kg, po dosed as solution in PEG400/EtOH; assay type: ADME, organism-based, Canis lupus familiaris; parameters: dose 1 mg/kg, route oral; details: in vivo
[19] = Oral bioavailability in dog at 1 mg/kg dosed as solution in PEG400/EtOH; assay type: ADME, organism-based, Canis lupus familiaris; details: in vivo
[20] = Cmax in dog at 1 mg/kg, po dosed as micronized suspension; assay type: ADME, organism-based, Canis lupus familiaris; parameters: dose 1 mg/kg, route oral; details: in vivo
[21] = Tmax in dog at 1 mg/kg, po dosed as micronized suspension; assay type: ADME, organism-based, Canis lupus familiaris; parameters: dose 1 mg/kg, route oral; details: in vivo
[22] = Oral bioavailability in dog at 1 mg/kg dosed as micronized suspension; assay type: ADME, organism-based, Canis lupus familiaris; details: in vivo
[23] = Oral bioavailability in dog at 1 mg/kg dosed as nanosuspension; assay type: ADME, organism-based, Canis lupus familiaris; details: in vivo
[24] = Solubility in water; assay type: physicochemical; details: buffer
[25] = Solubility in poly ethylene glycol 400; assay type: physicochemical; details: polyethylene glycol 400
[26] = Cmax in dog at 1 mg/kg, po dosed as nanosuspension; assay type: ADME, organism-based, Canis lupus familiaris; parameters: dose 1 mg/kg, route oral; details: in vivo
[27] = Tmax in dog at 1 mg/kg, po dosed as nanosuspension; assay type: ADME, organism-based, Canis lupus familiaris; parameters: dose 1 mg/kg, route oral; details: in vivo

O=C(C(=O)N1CCN(C(=O)c2ccccc2)CC1)c1c[nH]c2cccc(F)c12
Cmax [1]: 649 ng/mL
CC50 at 72 h [2]: > 300000 nM
EC50 [3]: 2.59 nM
clearance [4]: 48 mL/min/kg
Vd [5]: 0.99 L/kg
half-life [6]: 0.467 h
MRT [7]: 0.35 h
Tmax [8]: 0.883 h
Tmax [9]: 0.617 h
half-life [10]: 1.2 h
bioavailability [11]: 17%
bioavailability [12]: 9%
Papp [13]: 10 ×10⁻⁶ cm/s
Cmax [14]: 18 ng/mL
Tmax [15]: 2.83 h
bioavailability [16]: 4%
Cmax [17]: 560 ng/mL
Tmax [18]: 1.2 h
bioavailability [19]: 89%
Cmax [20]: 60 ng/mL
Tmax [21]: 4 h
bioavailability [22]: 12%
bioavailability [23]: 36%
solubility [24]: 0.005 µg/mL (≈ 1.32e-05 mM)
solubility [25]: 4600 µg/mL (≈ 12.1 mM)
Cmax [26]: 160 ng/mL
Tmax [27]: 1.8 h
